# Conditions: not given
Compound,melting point,boiling point,log10 Koa,log10 vapour pressure (mmHg),ready biodegradability,log10 Henry constant (atm·m³/mol),log10 biodegradation half-life (days),log10 Koc (L/kg)
O=C(O)/C=C(/Br)C(=O)O,163 °C,,,,,,,
COc1ccc(C(=O)Cl)cc1,24.5 °C,262 °C,,,,,,
O=C(O)C=Cc1cccc([N+](=O)[O-])c1,179 °C,,,,,,,
COC(=O)c1ccc(O)cc1,131 °C,,8.57,,,,,
NCCCCN,27.5 °C,158 °C,,,,,,
Nc1ccnc2ccccc12,155 °C,,,,,,,
C=C(C)C1CC=C(C)C(O)C1 (stereo unspecified),,228 °C,,,,,,
COC(=O)c1ccc(O)c(OC)c1,64 °C,286 °C,,,,,,
CCCCCCCC(=O)O,16.3 °C,239 °C,,-2.43,readily biodegradable,,,
COc1cc(C)nc(-n2nc(C)cc2OC)n1,91 °C,,,,,,,
OCCCCCCCCCCCl,12.5 °C,,,,,,,
COC(=O)c1ccccc1OC,,246 °C,,,,,,
OCCCc1cccnc1,,284 °C,,,,,,
Clc1ccc(-c2ccc(Cl)c(Cl)c2Cl)c(Cl)c1,,,,,,-4.18,,
N#Cc1c(F)c(F)cc(F)c1F,34 °C,,,,,,,
c1ccc(N(CC2CO2)CC2CO2)cc1 (stereo unspecified),,,,,not readily biodegradable,,,
Nc1cccc(S(=O)(=O)O)c1,,,,,not readily biodegradable,,,
CC(=O)c1ccc(C)cc1O,21 °C,245 °C,,,,,,
CCCCCC,,,2.4,2.18,readily biodegradable,,0.954,
COc1ccc2c3c1O[C@H]1[C@@H](O)CC=C4[C@@H](C2)N(C)CC[C@]431,128 °C,,,,,,,
C=CCN(CC=C)C(=O)CCl,,,,-2.03,,,,1.3
C1CNC1,,63 °C,,2.25,,,,
BrC(Br)C(Br)(Br)Br,56.5 °C,,,,,,,
O=C(OCCOCCOC(=O)c1ccccc1)c1ccccc1,33.5 °C,,,,,,,
CC1CCC(C)C(C)C1C (stereo unspecified),-75 °C,,,0.117,,,,

Compound,melting point,boiling point,log10 Koa,log10 vapour pressure (mmHg),ready biodegradability,log10 Henry constant (atm·m³/mol),log10 biodegradation half-life (days),log10 Koc (L/kg)
Clc1ccc(Cl)c(I)c1,22 °C,253 °C,,,,,,
CCCCOC(=O)Nc1ccccc1,,,,,,,,2.26
C=CC1CCC(O)C(O)C1 (stereo unspecified),,,,,not readily biodegradable,,,
O=C1OCc2ccccc21,75 °C,290 °C,,-2.7,readily biodegradable,,,
Clc1cccs1,-71.9 °C,128 °C,,1.38,,,,
O=C(O)C=Cc1ccco1,143 °C,,,,,,,
COc1cc(C)c(/C=C/C(C)=C/C=C/C(C)=C/C(=O)O)c(C)c1C,229 °C,,,,,,,
COc1cc2nc(N3CCN(C(=O)c4ccco4)CC3)nc(N)c2cc1OC,279 °C,,,,,,,
Cc1cc(C)c(N(C)C)c(C)c1,,214 °C,,,,,,
COc1cccc(N)c1,-1 °C,251 °C,,-1.12,not readily biodegradable,,,
O=C1c2cccc([N+](=O)[O-])c2C(=O)c2cccc([N+](=O)[O-])c21,385 °C,,,,,,,
Cc1c(C(N)=O)cc([N+](=O)[O-])cc1[N+](=O)[O-],177 °C,,,,,,,
Cc1cc(C(C#N)c2ccc(Cl)cc2)c(Cl)cc1NC(=O)c1cc(I)cc(I)c1O (stereo unspecified),218 °C,,,,,,,
CSc1ncnc2c1ncn2[C@@H]1O[C@H](CO)[C@@H](O)[C@H]1O,164 °C,,,,,,,
CCCCCC(O)c1ccc(O)c(O)c1 (stereo unspecified),109 °C,,,,,,,
C[N+](C)(C)c1ccccc1.[I-],224 °C,,,,,,,
COc1ccc(C=CC(=O)c2ccccc2)cc1,79 °C,,,,,,,
c1ccc(-c2cnc(-c3ccc(-c4ncc(-c5ccccc5)o4)cc3)o2)cc1,245 °C,,,,,,,
O[C@H]1[C@H]2c3cc4c(cc3CN3CCC(=C[C@@H]1O)[C@H]23)OCO4,280 °C,,,,,,,
CCN(CC)c1ccc2c(-c3ccccc3C(=O)O)c3ccc(N(CC)CC)cc3[o+]c2c1.[Cl-],165 °C,,,,,,,
CCCO[Si](OCCC)(OCCC)OCCC,,226 °C,,,,,,
CC[N+]1(C)CCCC(OC(=O)C(O)(c2ccccc2)c2ccccc2)C1.[Br-] (stereo unspecified),180 °C,,,,,,,
COC(C)(C)OC,-47 °C,83 °C,,2.01,,,,
CC(C)O,-89.5 °C,82.3 °C,,1.66,readily biodegradable,-5.09,,
CC(C)CCOC(=O)CC(C)C,,190 °C,,-0.0526,,,,

Compound,melting point,boiling point,log10 Koa,log10 vapour pressure (mmHg),ready biodegradability,log10 Henry constant (atm·m³/mol),log10 biodegradation half-life (days),log10 Koc (L/kg)
CCN(CC)c1ccc(C(=O)c2ccccc2C(=O)O)c(O)c1,,,,,not readily biodegradable,,,
CC(Cl)CC(C)Cl (stereo unspecified),,145 °C,,,,,,
CN1CSCSC1,65 °C,185 °C,,,,,,
CC(=O)Nc1ccc(OC(=O)c2ccccc2O)cc1,187 °C,,,,,,,
c1ccc2c(c1)[nH]c1cnccc12,199 °C,,,,,,,
CCCC=C(C)C,-130 °C,95.4 °C,,1.73,,,,
C=CCCC(C)(C)C,,104 °C,,,,,,
C/C=C\CC(C)(C)C,,107 °C,,,,,,
CC(C)c1cc(Oc2ccccc2)cc(C(C)C)c1NC(=S)NC(C)(C)C,146 °C,,,,,,,
O=c1[nH]c2ccccc2o1,138 °C,335 °C,,,,,,
Cc1nccs1,,128 °C,,,,,,
CCOc1cccc(Cl)c1,,207 °C,,,,,,
CN(C)c1ccc(Cc2ccc(N(C)C)cc2)cc1,91.5 °C,390 °C,,,not readily biodegradable,,,3.96
Cc1ccc(N)c(Cl)c1,7 °C,220 °C,,,,,,
C[Si](C)(Cl)c1ccccc1,,,,-0.14,,,,
CN(C)C(=O)N[C@@H]1C[C@@H]2C[C@H]1[C@@H]1CCC[C@H]21,177 °C,,,,,,,
CC(C)c1ccccc1,-96 °C,152 °C,3.98,0.653,readily biodegradable,-1.94,1.18,
c1ccc2c(c1)cnc1ccccc12,107 °C,349 °C,,-4.68,,,,
CC(C)Oc1cccc(NC(=O)c2ccccc2C(F)(F)F)c1,104 °C,,,-7.31,,,,
O=c1c(-c2ccccc2)c1-c1ccccc1,119 °C,,,,,,,
CC(C)(C)OCCO,,,,,not readily biodegradable,,,
CC(C)C1=CC2C(C)CC1C1C(=O)OC(=O)C21 (stereo unspecified),,,,,not readily biodegradable,,,
CCC(CO)[N+](=O)[O-] (stereo unspecified),-47 °C,,,,,,,
CC(N)Cc1ccccc1 (stereo unspecified),,,,-0.62,,,,
O=C(Oc1ccccc1)c1ccccc1,71 °C,314 °C,,-2.77,,,,3.16

Compound,melting point,boiling point,log10 Koa,log10 vapour pressure (mmHg),ready biodegradability,log10 Henry constant (atm·m³/mol),log10 biodegradation half-life (days),log10 Koc (L/kg)
C[C@H](CCC(=O)O)[C@H]1CC[C@H]2[C@@H]3CCC4CCCC[C@]4(C)[C@H]3CC[C@]12C (stereo partly specified),164 °C,,,,,,,
CCC(C)(C)I,,124 °C,,,,,,
CC(C)(C)NCC(O)COc1cccc2c1C[C@H](O)[C@H](O)C2 (stereo partly specified),130 °C,,,,,,,
Cc1ccsc1Br,,176 °C,,,,,,
CC(C)c1ccccc1-c1ccccc1,,,,-3.3,,,,
CCCC(C)CC(C)CC (stereo unspecified),,159 °C,,,,,,
CCOC(=O)c1ccc2ccccc2c1,32 °C,308 °C,,,,,,
Cc1cc(=O)cc(C)o1,132 °C,251 °C,,,,,,
C[Si](C)(C)O[Si](C)(C)O[Si](C)(C)O[Si](C)(C)O[Si](C)(C)O[Si](C)(C)O[Si](C)(C)O[Si](C)(C)O[Si](C)(C)C,,308 °C,,,,,,
CC(C)(C)C(O)C(Oc1ccc(Cl)cc1)n1cncn1 (stereo unspecified),124 °C,,,-9.51,,,,2.7
Cc1cc(O)c(Cl)cc1Cl,73 °C,234 °C,,,,,,
CC(=O)c1cccnc1,13.5 °C,220 °C,,,,-7.67,,
O[C@@H](Cc1ccccc1)c1ccccc1,67 °C,,,,,,,
c1ccc2ncccc2c1,-14.8 °C,237 °C,,-1.22,readily biodegradable,,,3.1
CC(C)C(N)=O,128 °C,218 °C,,,,,,
C1CC2CC1C1OC21 (stereo unspecified),123 °C,,,,,,,
CCOC(=O)CC(C)=O,-45 °C,181 °C,,-0.108,,,,
CCCCc1c(C)nc(N(C)C)nc1O,102 °C,,,-4.96,,,,1.95
O=Cc1cccc(F)c1,,173 °C,,,,,,
Cc1ccc(O)c(C(C)(C)C)c1,51.5 °C,237 °C,,-1.6,not readily biodegradable,,,
ClC(Cl)C(Cl)C(Cl)Cl,-10 °C,199 °C,,-0.0278,not readily biodegradable,,,
Cc1ccccc1S,15 °C,195 °C,,-0.193,,,,
CCCCOC(=O)OCCCC,,170 °C,,,,,,
CC(=O)Oc1ccc(C(=C2CCCCC2)c2ccc(OC(C)=O)cc2)cc1,136 °C,,,,,,,
CCN(CC)CCNc1ccc(C)c2sc3ccccc3c(=O)c12.Cl,196 °C,,,,,,,

Compound,melting point,boiling point,log10 Koa,log10 vapour pressure (mmHg),ready biodegradability,log10 Henry constant (atm·m³/mol),log10 biodegradation half-life (days),log10 Koc (L/kg)
CCCCCCCCCCCCCCCCCC(=O)N(CCO)CCO,,,,,readily biodegradable,,,
FSC(F)(F)F,,148 °C,,,,,,
O=C(O)C(F)(F)C(F)(F)C(F)(F)C(F)(F)C(F)(F)C(F)(F)C(F)(F)C(F)(F)C(F)(F)C(F)(F)C(F)(F)F,108 °C,249 °C,,,not readily biodegradable,,,
O=C(c1ccccc1)c1cccnc1,38 °C,307 °C,,,,,,
CC1CCC(C)CC1 (stereo unspecified),-87 °C,120 °C,,1.25,,,,
CN(C)CCCN1c2ccccc2CCc2ccc(Cl)cc21,190 °C,,,,,,,
CC(O)C(C)C(C)O (stereo unspecified),,212 °C,,,,,,
CS(=O)(=O)c1c(F)c(F)c(F)c(F)c1F,,,,,,,,1.46
CC(C)(C#N)C#N,31.5 °C,170 °C,,0.16,,,,
CC1(C)CNC(=NN=C(/C=C/c2ccc(C(F)(F)F)cc2)/C=C/c2ccc(C(F)(F)F)cc2)NC1,188 °C,,,-7.69,,,,5.86
O=C(c1ccccc1)c1c(F)c(F)c(F)c(F)c1F,37 °C,,,,,,,
CC(CO)CC(F)(F)F (stereo unspecified),,132 °C,,,,,,
C=CC(=O)OCCCCCC,-45 °C,,,,readily biodegradable,,,
C[C@H]1O[C@H](O[C@H]2CC[C@H](n3ccc(NC(=O)c4ccc(NC(=O)[C@@](C)(N)CO)cc4)nc3=O)O[C@@H]2C)[C@H](O)[C@@H](O)[C@@H]1N(C)C,167 °C,,,,,,,
CCCCCCOC(=O)CC,-57.5 °C,190 °C,,,,,,
COC(=O)NN,73 °C,,,,,,,
CC(=O)OOC(=O)c1ccccc1,37 °C,,,,,,,
NCCCN1CCN(CCCN)CC1,15 °C,,,,,,,
CCn1ccc2ccccc21,105 °C,252 °C,,,,,,
COC(=O)C(F)(F)C(F)(F)C(F)(F)F,-86 °C,80 °C,,,,,,
c1ccc(CN2CCOCC2)cc1,194 °C,260 °C,,,,,,

# Same assay, conditions: fish
Compound,log10 biotransformation half-life (days),log10 BCF
Clc1cc(-c2cc(Cl)c(Cl)c(Cl)c2Cl)cc(Cl)c1Cl,2.32,
CN(C)c1ccc(Cc2ccc(N(C)C)cc2)cc1,-0.04,
CC(C)c1ccccc1,,1.55
CC(C)Oc1cccc(NC(=O)c2ccccc2C(F)(F)F)c1,-0.61,1.29
c1ccc2ncccc2c1,-1.33,0.58
